Molecules are shown by their SMILES.

Data on one molecule can be found in patent publication US6534056B1, “Therapeutic and diagnostic uses of protein tyrosine phosphatase TC-PTP” (McGill University, priority 1998, dated 2003).

The test system of one assay is EFM4−/− cells. The assay is described as follows: Survival (MTT conversion) 24 h after methyl methane-sulfonate treatment, TC-PTP knock-out cell line. It is filed as cell-based, murine. The following applies: 5 μM MMS, 24 h after treatment, FIG. 5D. How it is done:
(§1) Cell proliferation and survival. Primary MEF+/+ and −/−, and TC-PTP+/+ and TC-PTP−/− cell, lines were seeded in 24-well cell culture plates at a density of […] in DMEM with 10% FBS. Cell number was determined after trypsinization by trypan blue exclusion or by MTT assay (Mosmann (1983) J. Immunol. Methods. 62:55-63) at day 1, 3, 5 and 7 after plating. Cells were treated with gamma- or UV-irradiation at doses indicated using a Gammacell 1000 (Atomic Energy of Canada) with a 137Cs source and Stratalinker (Stratagene) respectively. After irradiation, the cells were plated in triplicate on 24-well plates. Survival was evaluated by MTT viability assays 48 hr post-radiation.
(§2) The function of cell cycle checkpoints is to verify the physical status of the genomic DNA. […] To assess the effects of DNA-damaging agents such as γ-radiation, UV-C radiation and methyl methane-sulfonate (MMS) treatment on TC-PTP−/− cells, we first evaluated at different times after treatment, the effect of 1000 rads of γ-radiation on the survival of the EFM7+/+, EFM3+/− and EFM4−/− cells. […] Conversion of MTT was evaluated as a measure of survival at 8, 24 and 48 h after the treatment and it is expressed as the percentage of OD570 measurements of treated to untreated wells. […]
(§3) Another DNA-damaging agent used was MMS, which is a DNA alkylating agent that results in single-strand breaks. […] Results are expressed as in A.

The test system of another assay is EFM7+/+ cells. The assay is described as follows: Survival (MTT conversion) 24 h after methyl methane-sulfonate treatment, wild-type cell line. The format is cell-based, murine. The following applies: 5 μM MMS, 24 h after treatment, FIG. 5D. As to the method:
as §1, §2, §3

Regarding `COS(C)(=O)=O` [MMS, methyl methane-sulfonate], the “viability after MMS treatment” value is listed as “strong decrease in the viability” with EFM4−/− cells and “slight decrease” with EFM7+/+ cells.
